From patent US5854010A, “Bioassay for detecting 2,3,7,8-tetrachlorodibenzo-para-dioxin and TCDD-like compounds and novel recombinant cell line useful therefor” (priority 1997, dated 1998)

How the values were obtained:
HG2L1.1c3 cells = assay: TCDD-inducible luciferase activity, stably transfected clonal cell line; type: cell-based, human; conditions: 24 h
Description: Using the stabilized luciferase assay system (purchased from Promega), luciferase activity in an aliquot of the cleared lysed cell supernatant (20 μl) was determined by mixing it with 100 µl of luciferase assay reagent (purchased from Promega) and measuring the resulting luminescence in a Turner Luminometer or Dynatech ML3000 microplate luminometer (light output was integrated over 1 minute after a delay time of 30 seconds).
Using a microplate adaptation of the method reported by Bradford in "A Rapid Sensitive Method for the Quantitation of Microgram Quantities of Protein Utilizing the Principle of Protein-Dye Binding", Anal. Biochem., […], pp. 248-254 (1976), luciferase activity was standardized to the protein concentration of the supernatant (with bovine serum albumin as the protein standard). Because of instrument differences in luminescence measurement and data output, luciferase activity was determined as relative light units (RLU) per microgram of protein, which was converted to milligram of protein as reported in the Tables below. […]
More particularly, isolated clones were grown until confluent, and then incubated in the absence or presence of TCDD (1 nM solubilized in DMSO) for 24 hours. After the incubation, luciferase activity was determined as described above.

H1L1.1 cells = assay: Dose response of luciferase induction, 24 h (FIGS. 3-6, Table 3); type: cell-based, mouse; conditions: for Induced luciferase activity, TCDD reference: 1 nM TCDD in DMSO
Description: The graph of FIG. 3 illustrates the dose dependence of luciferase induction in the mouse H1L1.1 cells measured following […] of the cells to increasing concentrations of TCDD or other toxic compounds (which others are discussed in more detail below).
More particularly, the stable cell clones for the mouse H1L1.1 cells (about 90% confluent) were plated into six-well microplates (purchased from Corning) and incubated for 24 hours with the indicated concentration of the particular toxin solubilized in DMSO. Then, the cells were lysed with 100 μl of lysis buffer and luciferase activity was determined as described above. Values represent the mean ± the standard evaluation of at least triplicate determinations.
As set out in Table 3, the responsiveness and sensitivity of the mouse H1L1.1 cells was compared to the responsiveness and sensitivity of certain other published PCDH cell bioassay systems. The other systems were a recombinant HepG2 (101L) cell line that induces firefly luciferase (see, Postlind et al., supra), a recombinant Hepa1 (T13) cell line that induces PAP activity (see El-Fouly et al., supra), and a rat H4IIE cell line that induces EROD activity (see, Kennedy et al., supra). The ED50 values were calculated by probit analysis of the dose-response data.
As set out in the graphs of FIGS. 3-6, since one use of the stably transfected mouse H1L1.1 cell lines is for detection and relative quantitative analysis of TCDD and various dioxin-like compounds (i.e., AhR ligands), the ability of various compounds besides TCDD to induce luciferase activity in the mouse H1L1.1 cells was examined. The experiments performed to determine the dose-response curves for the toxins other than TCDD set out in the graphs of FIGS. 3-6 were performed in essentially the same manner as the experiments described above to determine the dose response curve of TCDD set out in the graph of FIG. 3.
Specifically, with respect to the data illustrated in the graph of FIG. 3, cells were incubated with increasing concentrations of test chemical and luciferase activity determined after 24 hours.
It should be noted that the low numerical values of luciferase activity from induction by various PCBs reported in FIGS. 4 and 5, compared to the values reported in the other figures, are not due to actual low levels of luciferase induction, but to the fact that the detection of luminescence in these experiments was performed using a different instrument from that used in the other experiments.
However, the relative magnitude of luciferase induction by the mono-ortho-PCBs (FIG. 4) and the AROCLORS (FIG. 5) was established by directly comparing the resulting activity to that produced by a maximally inducing dose of TCDD (1 nM solubilized in DMSO) measured in the same instrument.

[1] = system: guinea pig G16L1.1c8 cells; assay: Antagonism of TCDD luciferase induction by 2,2',5,5'-TCB (FIG. 7); type: cell-based; conditions: TCDD 5 nM, 24 h
Description: (§1) The bar graph of FIG. 7 illustrates that 2,2',5,5'-TCB antagonizes induction of luciferase activity by TCDD in a species-specific manner, and thus, 2,2',5,5'-TCB is not a TCDD-like compound as defined herein. In particular, six-well plates containing the indicated cell lines were incubated with DMSO (control), with TCDD (5 nM), with 2,2',5,5'-TCB (25 μM), or with both TCDD (5 nM) and 2,2',5,5'-TCB (25 μM) for 24 hours. Luciferase activity in cell lysates was determined as described above. Values represent the mean ± the standard evaluation of at least triplicate determinations.

human HG2L1.1c3 cells = assay: as above; type: cell-based; conditions: TCDD 5 nM, 24 h
Description: as §1

mouse H1L1.1 cells = assay: as above; type: cell-based; conditions: TCDD 5 nM, 24 h
Description: as §1

rat H4L1.1c4 cells = assay: as above; type: cell-based; conditions: TCDD 5 nM, 24 h
Description: as §1

[2] = system: Rat H4IIE cells, CYP1A1/EROD; conditions: Table 3 comparison, Kennedy et al., cited from earlier work
[3] = system: Mouse T13 cells (recombinant Hepa1), alkaline phosphatase; conditions: Table 3 comparison, El-Fouly et al.; read-out: ED50 (the source's name); cited from earlier work

Compound: Clc1cc2c(cc1Cl)Oc1cc(Cl)c(Cl)cc1O2 [TCDD, 2,3,7,8-tetrachlorodibenzo-para-dioxin]
- fold induction (HG2L1.1c3 cells; Homo sapiens, TCDD 1 nM vs DMSO): 29
- Luciferase activity, TCDD in DMSO (HG2L1.1c3 cells; TCDD 1 nM, mean ± SD of triplicate assays): 25.04 ± 1.88 RLU/mg protein
- Induced luciferase activity, TCDD reference (H1L1.1 cells; instrument of FIG. 4): 2.25±0.6
- Induced luciferase activity, TCDD reference (H1L1.1 cells; instrument of FIG. 5): 0.95±0.07
- EC50 (H1L1.1 cells; Mus musculus, 24 h, FIG. 3): ~0.02 nM
- fold induction at 0.001 µM (H1L1.1 cells; Mus musculus, by 1.0 nM TCDD, 24 h, FIG. 3, read-out: Maximal induction of luciferase activity): 80
- Dose dependence of luciferase induction (H1L1.1 cells; TCDD, 24 h, FIG. 3): dose dependent
- Luciferase induction by TCDD alone [1]: induced luciferase activity
- Luciferase induction by TCDD alone (human HG2L1.1c3 cells): induced luciferase activity
- Luciferase induction by TCDD alone (mouse H1L1.1 cells): induced luciferase activity
- Luciferase induction by TCDD alone (rat H4L1.1c4 cells): induced luciferase activity
- MDL (minimal detection level) [2]: 10 pM
- EC50 ([2]; read-out: ED50 (the source's name)): 0.1 nM
- EC50 [3]: 0.35 nM
